Measured values: US10597388B2, “Pyridazinone herbicides” (FMC CORPORATION, priority 2014, dated 2020)

Experiments:
Assay type in all cases: in vivo
[1] = test system: barnyardgrass (Echinochloa crus-galli); assay: Test C greenhouse herbicide test, pre- and postemergence
Outline: (§1)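 Pre- and postemergence greenhouse screen; values are visual control ratings, 0 meaning no effect and 100 complete kill, assigned relative to untreated plants after 13 to 15 d.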

[2] = test system: blackgrass (Alopecurus myosuroides); assay: as above
Outline: as §1

corn (Zea mays) = assay: as above
Outline: as §1

[3] = test system: crabgrass, large (large crabgrass, Digitaria sanguinalis); assay: as above
Outline: as §1

[4] = test system: foxtail, giant (giant foxtail, Setaria faberii); assay: as above
Outline: as §1

[5] = test system: johnsongrass (Sorghum halepense); assay: as above
Outline: as §1

[6] = test system: lambsquarters (Chenopodium album); assay: as above
Outline: as §1

[7] = test system: morningglory (Ipomoea coccinea); assay: as above
Outline: as §1

[8] = test system: nutsedge, yellow (yellow nutsedge, Cyperus esculentus); assay: as above
Outline: as §1

[9] = test system: oilseed rape (Brassica napus); assay: as above
Outline: as §1

[10] = test system: pigweed (Amaranthus retroflexus); assay: as above
Outline: as §1

[11] = test system: velvetleaf (Abutilon theophrasti); assay: as above
Outline: as §1

[12] = test system: waterhemp (common waterhemp, Amaranthus rudis); assay: as above
Outline: as §1

[13] = test system: wheat (winter wheat, Triticum aestivum); assay: as above
Outline: as §1

kochia (Kochia scoparia) = assay: Test C greenhouse herbicide test, postemergence; conditions: Postemergence
Outline: (§2)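 Ratings are visual scores from 0 (no effect) to 100 (complete control), made against controls 13–15 d after treatment. Postemergence sprays were applied in the greenhouse to plants 2–18 cm tall (1- to 4-leaf stage) in peat-moss/vermiculite potting medium.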

[14] = test system: oat, wild (wild oat, Avena fatua); assay: Test C greenhouse herbicide test, postemergence; conditions: Postemergence
Outline: as §2

[15] = Postemergence, 31 g ai/ha, scale 0 to 100 (0 no effect, 100 complete control)
[16] = Postemergence, 125 g ai/ha, scale 0 to 100, 0 is no effect, 100 is complete control
[17] = Postemergence, 250 g ai/ha, scale 0 to 100, 0 no effect, 100 complete control, 13 to 15 d
[18] = Preemergence, 31 g ai/ha, scale 0 to 100, 0 is no effect, 100 is complete control
[19] = Preemergence, 62 g ai/ha, scale 0 to 100, 0 is no effect, 100 is complete control
[20] = Preemergence, 125 g ai/ha, scale 0 to 100, 0 is no effect, 100 is complete control
[21] = Preemergence, 250 g ai/ha, scale 0 to 100 (0 no effect, 100 complete control)
[22] = postemergence, 62 g ai/ha, scale 0 to 100, 0 no effect, 100 complete control
[23] = 31 g ai/ha, scale 0 to 100 (0 no effect, 100 complete control)
[24] = 125 g ai/ha, scale 0 to 100, 0 is no effect, 100 is complete control
[25] = 250 g ai/ha, scale 0 to 100, 0 no effect, 100 complete control, 13 to 15 d

CCCC(=O)Oc1c(C)nn(C)c(=O)c1-c1c(C)sc2c(C)cc(C)cc12 [Compound 106]
Plant response rating, Barnyardgrass [1, 15]: 15 | Plant response rating, Barnyardgrass [1, 16]: 20 | Plant response rating, Barnyardgrass [1, 17]: 40 | Plant response rating, Barnyardgrass [1, 18]: 25 | Plant response rating, Barnyardgrass [1, 19]: 45 | Plant response rating, Barnyardgrass [1, 20]: 85 | Barnyardgrass plant response rating [1, 21]: 95 | Barnyardgrass plant response rating [1, 22]: 15 | Plant response rating, Blackgrass [2, 15]: 45 | Plant response rating, Blackgrass [2, 16]: 60 | Plant response rating, Blackgrass [2, 17]: 75 | Plant response rating, Blackgrass [2, 18]: 10 | Plant response rating, Blackgrass [2, 19]: 50 | Plant response rating, Blackgrass [2, 20]: 90 | Blackgrass plant response rating [2, 21]: 85 | Blackgrass plant response rating [2, 22]: 50 | Plant response rating, Corn (corn (Zea mays); [15]): 0 | Plant response rating, Corn (corn (Zea mays); [16]): 10 | Plant response rating, Corn (corn (Zea mays); [17]): 10 | Plant response rating, Corn (corn (Zea mays); [18]): 0 | Plant response rating, Corn (corn (Zea mays); [19]): 0 | Plant response rating, Corn (corn (Zea mays); [20]): 10 | Corn plant response rating (corn (Zea mays); [21]): 20 | Corn plant response rating (corn (Zea mays); [22]): 10 | Plant response rating, Crabgrass, Large [3, 15]: 25 | Plant response rating, Crabgrass, Large [3, 16]: 30 | Plant response rating, Crabgrass, Large [3, 17]: 30 | Plant response rating, Crabgrass, Large [3, 18]: 70 | Plant response rating, Crabgrass, Large [3, 19]: 70 | Plant response rating, Crabgrass, Large [3, 20]: 75 | Crabgrass, Large plant response rating [3, 21]: 80 | Crabgrass, Large plant response rating [3, 22]: 40 | Plant response rating, Foxtail, Giant [4, 15]: 70 | Plant response rating, Foxtail, Giant [4, 16]: 90 | Plant response rating, Foxtail, Giant [4, 17]: 95 | Plant response rating, Foxtail, Giant [4, 18]: 85 | Plant response rating, Foxtail, Giant [4, 19]: 95 | Plant response rating, Foxtail, Giant [4, 20]: 100 | Foxtail, Giant plant response rating [4, 21]: 100 | Plant response rating, Johnsongrass [5, 15]: 5 | Plant response rating, Johnsongrass [5, 16]: 10 | Plant response rating, Johnsongrass [5, 17]: 10 | Plant response rating, Johnsongrass [5, 18]: 5 | Plant response rating, Johnsongrass [5, 19]: 5 | Plant response rating, Johnsongrass [5, 20]: 5 | Johnsongrass plant response rating [5, 21]: 15 | Plant response rating, Lambsquarters [6, 15]: 85 | Plant response rating, Lambsquarters [6, 16]: 95 | Plant response rating, Lambsquarters [6, 17]: 98 | Plant response rating, Lambsquarters [6, 18]: 90 | Plant response rating, Lambsquarters [6, 19]: 90 | Plant response rating, Lambsquarters [6, 20]: 100 | Lambsquarters plant response rating [6, 21]: 100 | Plant response rating, Morningglory [7, 15]: 100 | Plant response rating, Morningglory [7, 16]: 100 | Plant response rating, Morningglory [7, 17]: 98 | Plant response rating, Morningglory [7, 18]: 85 | Plant response rating, Morningglory [7, 19]: 90 | Plant response rating, Morningglory [7, 20]: 98 | Morningglory plant response rating [7, 21]: 98 | Plant response rating, Nutsedge, Yellow [8, 15]: 65 | Plant response rating, Nutsedge, Yellow [8, 16]: 90 | Plant response rating, Nutsedge, Yellow [8, 17]: 80 | Plant response rating, Nutsedge, Yellow [8, 18]: 60 | Plant response rating, Nutsedge, Yellow [8, 19]: 70 | Plant response rating, Nutsedge, Yellow [8, 20]: 80 | Nutsedge, Yellow plant response rating [8, 21]: 90 | Plant response rating, Oilseed Rape [9, 15]: 60 | Plant response rating, Oilseed Rape [9, 16]: 85 | Plant response rating, Oilseed Rape [9, 17]: 95 | Plant response rating, Oilseed Rape [9, 18]: 0 | Plant response rating, Oilseed Rape [9, 19]: 0 | Plant response rating, Oilseed Rape [9, 20]: 30 | Oilseed Rape plant response rating [9, 21]: 90 | Plant response rating, Pigweed [10, 15]: 70 | Plant response rating, Pigweed [10, 16]: 90 | Plant response rating, Pigweed [10, 17]: 90 | Plant response rating, Pigweed [10, 18]: 98 | Plant response rating, Pigweed [10, 19]: 98 | Plant response rating, Pigweed [10, 20]: 100 | Pigweed plant response rating [10, 21]: 100 | Plant response rating, Velvetleaf [11, 15]: 80 | Plant response rating, Velvetleaf [11, 16]: 90 | Plant response rating, Velvetleaf [11, 17]: 100 | Plant response rating, Velvetleaf [11, 18]: 40 | Plant response rating, Velvetleaf [11, 19]: 60 | Plant response rating, Velvetleaf [11, 20]: 85 | Velvetleaf plant response rating [11, 21]: 90 | Plant response rating, Waterhemp [12, 15]: 65 | Plant response rating, Waterhemp [12, 16]: 75 | Plant response rating, Waterhemp [12, 17]: 80 | Plant response rating, Waterhemp [12, 18]: 70 | Plant response rating, Waterhemp [12, 19]: 75 | Plant response rating, Waterhemp [12, 20]: 80 | Waterhemp plant response rating [12, 21]: 90 | Plant response rating, Wheat [13, 15]: 0 | Plant response rating, Wheat [13, 16]: 0 | Plant response rating, Wheat [13, 17]: 5 | Plant response rating, Wheat [13, 18]: 15 | Plant response rating, Wheat [13, 19]: 0 | Plant response rating, Wheat [13, 20]: 0 | Wheat plant response rating [13, 21]: 0 | Plant response rating, Kochia (kochia (Kochia scoparia); [23]): 70 | Plant response rating, Kochia (kochia (Kochia scoparia); [24]): 80 | Plant response rating, Kochia (kochia (Kochia scoparia); [25]): 80 | Plant response rating, Oat, Wild [14, 23]: 50 | Plant response rating, Oat, Wild [14, 24]: 90 | Plant response rating, Oat, Wild [14, 25]: 90
